Data on 15 compounds can be found in patent US12281122B1, “PI3K inhibitors” (Cogent Biosciences, Inc., priority 2023, dated 2025).

Experiment [1] has as its system T47D (PI3Kα-H1047R) cell line. Put plainly: HTRF phospho-AKT(S473) cell assay in T47D cells. Format: cell-based, human. To be noted: Homo sapiens; HTRF phospho-AKT(S473), T47D (PI3Kα-H1047R) cells, 2 hours compound incubation. Put shortly:
(§1)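 HTRF read-out of phospho-AKT(S473) in lysates gave IC50 values after 2 h compound exposure at 37° C. Dose series was 12 points at 1:3, topping at 5 μM for T47D and 10 μM for SKBR3. Only SKBR3 received 70 ng/ml PDGF-BB during the last 15 minutes.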
On the technique in general: TR-FRET usually uses a lanthanide donor and a delayed reading to cut background.

Experiment [2] relates to SKBR3 (PI3Kα-Wild Type) cell line. Put plainly: HTRF phospho-AKT(S473) cell assay in SKBR3 cells. Format: cell-based, human. The settings on record: Homo sapiens, SK-BR-3; HTRF phospho-AKT(S473), SKBR3 (PI3Kα-Wild Type) cells, 2 hours compound incubation, PDGF-BB stimulated. Put shortly:
as §1

For the compound `COc1cc(C2CCN(c3nc4c([C@@H](C)Nc5ccc(Cl)nc5C(=O)NS(C)(=O)=O)cc(C)cc4c(=O)n3C)CC2)nn1C` [Compound 704, (R)-6-chloro-3-((1-(2-(4-(5-methoxy-1-methyl-1H-pyrazol-3-yl)piperidin-1-yl)-3,6-dimethyl-4-oxo-3,4-dihydroquinazolin-8-yl)ethyl)amino)-N-(methylsulfonyl) picolinamide], the 50% inhibitory concentration (IC50) – broadly, the concentration needed to halve the response being measured – in experiment [1] was 250 to 500 nM; in experiment [2], no less than 5000 nM.
As for `COc1ccccc1-n1cc2c(n1)CN(c1nc3c([C@@H](C)Nc4ccc(Cl)nc4C(=O)NS(C)(=O)=O)cc(C)cc3c(=O)n1C)C2` [Compound 705, (R)-6-chloro-3-((1-(2-(2-(2-methoxyphenyl)-2,6-dihydropyrrolo[3,4-c]pyrazol-5(4H)-yl)-3,6-dimethyl-4-oxo-3,4-dihydroquinazolin-8-yl)ethyl)amino)-N-(methylsulfonyl) picolinamide], the IC50 is 250 to 500 nM in experiment [1] and no less than 5000 nM in experiment [2].
Take `Cc1cc([C@@H](C)Nc2ccc(Cl)nc2C(=O)NS(C)(=O)=O)c2nc(N3CCC(c4ccc[nH]c4=O)CC3)n(C)c(=O)c2c1` [Compound 706, (R)-6-chloro-3-((1-(3,6-dimethyl-4-oxo-2-(4-(2-oxo-1,2-dihydropyridin-3-yl)piperidin-1-yl)-3,4-dihydroquinazolin-8-yl)ethyl)amino)-N-(methylsulfonyl) picolinamide]: the IC50 was 500 to 1000 nM in experiment [1] and no less than 5000 nM in experiment [2].
The corresponding values for `Cc1cc([C@@H](C)Nc2ccc(Cl)nc2C(=O)NS(C)(=O)=O)c2nc(N3CC[C@@H](Oc4cncnc4)C3)n(C)c(=O)c2c1` [Compound 707, 6-chloro-3-(((R)-1-(3,6-dimethyl-4-oxo-2-((R)-3-(pyrimidin-5-yloxy)pyrrolidin-1-yl)-3,4-dihydroquinazolin-8-yl)ethyl)amino)-N-(methylsulfonyl) picolinamide] are 250 to 500 nM and 1000 to 5000 nM.
For `Cc1cc([C@@H](C)Nc2ccc(Cl)nc2C(=O)NS(C)(=O)=O)c2nc(N3CCC4(CCCN(c5ccn(C)n5)C4)C3)n(C)c(=O)c2c1` (stereo partly drawn) [Compound 708, 6-chloro-3-(((1R)-1-(3,6-dimethyl-2-(7-(1-methyl-1H-pyrazol-3-yl)-2,7-diazaspiro[4.5]decan-2-yl)-4-oxo-3,4-dihydroquinazolin-8-yl)ethyl)amino)-N-(methylsulfonyl) picolinamide] the same measures were 250 to 500 nM and no less than 5000 nM.
For `Cc1cc([C@@H](C)Nc2ccc(Cl)nc2C(=O)NS(C)(=O)=O)c2nc(N3Cc4ccc(-c5ccnc(C)c5)cc4C3)n(C)c(=O)c2c1` [Compound 709, (R)-6-chloro-3-((1-(3,6-dimethyl-2-(5-(2-methylpyridin-4-yl)isoindolin-2-yl)-4-oxo-3,4-dihydroquinazolin-8-yl)ethyl)amino)-N-(methylsulfonyl) picolinamide] the same measures were 250 to 500 nM and no less than 5000 nM.
Consider `Cc1cc([C@@H](C)Nc2ccc(Cl)nc2C(=O)NS(C)(=O)=O)c2nc(N3CC[C@@H](Oc4ccnnc4)C3)n(C)c(=O)c2c1` [Compound 710, 6-chloro-3-(((R)-1-(3,6-dimethyl-4-oxo-2-((R)-3-(pyridazin-4-yloxy)pyrrolidin-1-yl)-3,4-dihydroquinazolin-8-yl)ethyl)amino)-N-(methylsulfonyl) picolinamide], for which the IC50 in experiment [1] is 1000 to 5000 nM; in experiment [2], no less than 5000 nM.
For `Cc1cc([C@@H](C)Nc2ccc(Cl)nc2C(=O)NS(C)(=O)=O)c2nc(N3CCn4ncc(F)c4C3)n(C)c(=O)c2c1` [Compound 711, (R)-6-chloro-3-((1-(2-(3-fluoro-6,7-dihydropyrazolo[1,5-a]pyrazin-5(4H)-yl)-3,6-dimethyl-4-oxo-3,4-dihydroquinazolin-8-yl)ethyl)amino)-N-(methylsulfonyl) picolinamide] the same measures were 250 to 500 nM and 1000 to 5000 nM.
The corresponding values for `Cc1cc([C@@H](C)Nc2ccc(Cl)nc2C(=O)NS(C)(=O)=O)c2nc(N3CCC(n4ncc(F)c4C)CC3)n(C)c(=O)c2c1` [Compound 712, (R)-6-chloro-3-((1-(2-(4-(4-fluoro-5-methyl-1H-pyrazol-1-yl)piperidin-1-yl)-3,6-dimethyl-4-oxo-3,4-dihydroquinazolin-8-yl)ethyl)amino)-N-(methylsulfonyl) picolinamide] are less than 250 nM and 1000 to 5000 nM.
For `Cc1cc([C@@H](C)Nc2ccc(Cl)nc2C(=O)NS(C)(=O)=O)c2nc(N3CC[C@@H](Oc4ccc(F)cn4)C3)n(C)c(=O)c2c1` [Compound 713, 6-chloro-3-(((R)-1-(2-((R)-3-((5-fluoropyridin-2-yl)oxy)pyrrolidin-1-yl)-3,6-dimethyl-4-oxo-3,4-dihydroquinazolin-8-yl)ethyl)amino)-N-(methylsulfonyl) picolinamide] the same measures were 250 to 500 nM and 1000 to 5000 nM.
Turning to `Cc1cc([C@@H](C)Nc2ccc(Cl)nc2C(=O)NS(C)(=O)=O)c2nc(N3CCN(c4cnccn4)CC3)n(C)c(=O)c2c1` [Compound 714, (R)-6-chloro-3-((1-(3,6-dimethyl-4-oxo-2-(4-(pyrazin-2-yl)piperazin-1-yl)-3,4-dihydroquinazolin-8-yl)ethyl)amino)-N-(methylsulfonyl) picolinamide], the IC50 in experiment [1] is less than 250 nM; in experiment [2], 1000 to 5000 nM.
The corresponding values for `Cc1cc([C@@H](C)Nc2ccc(Cl)nc2C(=O)NS(C)(=O)=O)c2nc(N3CCC(c4cc(C)[nH]n4)CC3)n(C)c(=O)c2c1` [Compound 715, (R)-6-chloro-3-((1-(3,6-dimethyl-2-(4-(5-methyl-1H-pyrazol-3-yl)piperidin-1-yl)-4-oxo-3,4-dihydroquinazolin-8-yl)ethyl)amino)-N-(methylsulfonyl) picolinamide] are less than 250 nM and 1000 to 5000 nM.
For `Cc1cc([C@@H](C)Nc2ccc(Cl)nc2C(=O)NS(C)(=O)=O)c2nc(N3CCC(n4cc(C)nn4)CC3)n(C)c(=O)c2c1` [Compound 716, (R)-6-chloro-3-((1-(3,6-dimethyl-2-(4-(4-methyl-1H-1,2,3-triazol-1-yl)piperidin-1-yl)-4-oxo-3,4-dihydroquinazolin-8-yl)ethyl)amino)-N-(methylsulfonyl) picolinamide] the same measures were less than 250 nM and 1000 to 5000 nM.
The corresponding values for `Cc1cc([C@@H](C)Nc2ccc(Cl)nc2C(=O)NS(C)(=O)=O)c2nc(N3CCC(c4n[nH]cc4Cl)CC3)n(C)c(=O)c2c1` [Compound 717, (R)-6-chloro-3-((1-(2-(4-(4-chloro-1H-pyrazol-3-yl)piperidin-1-yl)-3,6-dimethyl-4-oxo-3,4-dihydroquinazolin-8-yl)ethyl)amino)-N-(methylsulfonyl) picolinamide] are 250 to 500 nM and no less than 5000 nM.
Consider `COc1cc(N2CCN(c3nc4c([C@@H](C)Nc5ccc(Cl)nc5C(=O)NS(C)(=O)=O)cc(C)cc4c(=O)n3C)CC2)nc(C)n1` [Compound 718, (R)-6-chloro-3-((1-(2-(4-(6-methoxy-2-methylpyrimidin-4-yl)piperazin-1-yl)-3,6-dimethyl-4-oxo-3,4-dihydroquinazolin-8-yl)ethyl)amino)-N-(methylsulfonyl) picolinamide], for which the IC50 in experiment [1] was 250 to 500 nM; in experiment [2] it was no less than 5000 nM.
